From ChEMBL document CHEMBL4346703, “Structure Overhaul Affords a Potent Purine PI3Kδ Inhibitor with Improved Tolerability” (J Med Chem, 2019)

What was measured:
[1] = Inhibition of adenosine transporter in human HeLa cells assessed as reduction in [3H]adenosine uptake preincubated for 30 mins followed by [3H]adenosine addition and measured after 60 mins; format: ADME, cell-based
[2] = target: T1, Phosphatidylinositol 4,5-bisphosphate 3-kinase catalytic subunit delta isoform (Homo sapiens, UniProt O00329); experiment: Inhibition of PI3Kdelta in human Ramos cells assessed as reduction in anti-IgM-antibody-induced phosphorylation of AKT at Ser473 residue preincubated for 20 mins followed by anti-IgM antibody stimulation and measured after 30 mins by alphascreen assay; format: cell-based
T1 sequence (O00329 whole entry): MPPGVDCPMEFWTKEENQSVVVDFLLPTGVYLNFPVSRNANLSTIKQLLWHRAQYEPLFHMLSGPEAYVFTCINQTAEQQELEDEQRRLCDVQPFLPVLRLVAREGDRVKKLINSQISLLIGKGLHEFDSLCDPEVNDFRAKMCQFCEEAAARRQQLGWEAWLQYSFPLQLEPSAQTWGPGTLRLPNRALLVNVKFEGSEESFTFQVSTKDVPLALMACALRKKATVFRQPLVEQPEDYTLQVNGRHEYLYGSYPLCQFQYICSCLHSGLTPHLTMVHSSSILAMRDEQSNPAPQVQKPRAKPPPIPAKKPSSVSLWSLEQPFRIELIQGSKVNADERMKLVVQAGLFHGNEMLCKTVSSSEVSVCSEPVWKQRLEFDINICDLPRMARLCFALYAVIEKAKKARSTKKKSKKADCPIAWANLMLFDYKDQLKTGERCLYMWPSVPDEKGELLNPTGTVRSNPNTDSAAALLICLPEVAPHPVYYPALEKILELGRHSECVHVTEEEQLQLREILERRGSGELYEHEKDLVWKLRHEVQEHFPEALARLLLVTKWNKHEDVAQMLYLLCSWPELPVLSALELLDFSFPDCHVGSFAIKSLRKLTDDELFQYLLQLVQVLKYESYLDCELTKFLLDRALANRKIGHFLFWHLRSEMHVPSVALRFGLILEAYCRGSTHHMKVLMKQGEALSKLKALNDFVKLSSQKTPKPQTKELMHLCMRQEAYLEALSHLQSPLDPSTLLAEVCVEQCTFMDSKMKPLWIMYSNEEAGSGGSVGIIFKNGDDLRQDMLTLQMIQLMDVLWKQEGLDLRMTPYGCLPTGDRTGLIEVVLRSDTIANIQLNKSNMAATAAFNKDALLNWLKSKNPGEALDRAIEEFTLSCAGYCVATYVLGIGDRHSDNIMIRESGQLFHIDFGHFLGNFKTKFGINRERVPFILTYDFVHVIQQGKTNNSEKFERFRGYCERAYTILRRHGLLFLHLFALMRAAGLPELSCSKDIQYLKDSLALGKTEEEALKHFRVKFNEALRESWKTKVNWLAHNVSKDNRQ

[3] = target: PI3-kinase p110-alpha/p85-alpha (Homo sapiens, UniProt P42336); experiment: Inhibition of N-terminal His6-tagged recombinant full length human p110alpha/untagged recombinant full length human p85alpha expressed in baculovirus infected Sf21 insect cells using PIP2 as substrate preincubated for 15 mins followed by substrate addition and measured after 1 hr by HTRF assay
[4] = target: PI3-kinase p110-delta/p85-alpha (Homo sapiens, UniProt O00329); experiment: Inhibition of N-terminal His6-tagged recombinant full length human p110delta/untagged recombinant full length human p85alpha expressed in baculovirus infected Sf21 insect cells using PIP2 as substrate preincubated for 15 mins followed by substrate addition and measured after 1 hr by HTRF assay
[5] = Lipophilicity, log D of the compound; format: physicochemical; details: octanol/water
[6] = target: High affinity cAMP-specific and IBMX-insensitive 3',5'-cyclic phosphodiesterase 8A (Homo sapiens, UniProt O60658); experiment: Inhibition of PDE8 (unknown origin)
[7] = target: Dual 3',5'-cyclic-AMP and -GMP phosphodiesterase 11A (Homo sapiens, UniProt Q9HCR9); experiment: Inhibition of PDE11 (unknown origin)
Phosphodiesterase 1 = Phosphodiesterase 1 (Homo sapiens, UniProt P54750+Q01064+Q14123); experiment: Inhibition of PDE1 (unknown origin); format: protein assay
[8] = Half-life in Wistar Han rat; format: ADME; details: in vivo
[9] = Plasma clearance in Wistar Han rat at 0.05 mg/kg; format: ADME, organism-based
[10] = Plasma clearance in Wistar Han rat at 0.5 mg/kg, iv or 1 mg/kg, po; format: ADME, organism-based
[11] = target: cAMP and cAMP-inhibited cGMP 3',5'-cyclic phosphodiesterase 10A (Homo sapiens, UniProt Q9Y233); experiment: Inhibition of PDE10 (unknown origin)
[12] = target: cGMP-specific 3',5'-cyclic phosphodiesterase (Homo sapiens, UniProt O76074); experiment: Inhibition of PDE5 (unknown origin)
[13] = Volume of distribution in Wistar Han rat; format: ADME; details: in vivo
[14] = target: cGMP-dependent 3',5'-cyclic phosphodiesterase (Homo sapiens, UniProt O00408); experiment: Inhibition of PDE2 (unknown origin)
[15] = Protein binding in Wistar Han rat plasma; format: ADME, cell-free; details: read-out: PPB (converted)
Phosphodiesterase 7 = Phosphodiesterase 7 (Homo sapiens, UniProt Q13946+Q9NP56); experiment: Inhibition of PDE7 (unknown origin); format: protein assay
Phosphodiesterase 3 = Phosphodiesterase 3 (Homo sapiens, UniProt Q14432+Q13370); experiment: Inhibition of PDE3 (unknown origin); format: protein assay
Phosphodiesterase 4 = Phosphodiesterase 4 (Homo sapiens, UniProt P27815+Q08499+Q07343+Q08493); experiment: Inhibition of PDE4 (unknown origin); format: protein assay
Phosphodiesterase 6 = experiment: Inhibition of PDE6 (unknown origin); format: protein assay, Homo sapiens
[16] = Unbound volume of distribution in Wistar Han rat; format: ADME; details: in vivo
[17] = target: High affinity cGMP-specific 3',5'-cyclic phosphodiesterase 9A (Homo sapiens, UniProt O76083); experiment: Inhibition of PDE9 (unknown origin)
Homo sapiens = species: Homo sapiens; experiment: Selectivity ratio of IC50 for N-terminal His6-tagged recombinant full length human p110alpha/untagged recombinant full length human p85alpha expressed in baculovirus infected Sf21 insect cells to IC50 for N-terminal His6-tagged recombinant full length human p110delta/untagged recombinant full length human p85alpha expressed in baculovirus infected Sf21 insect cells
[18] = Intrinsic clearance in Wistar Han rat at 0.05 mg/kg; format: ADME, organism-based; details: in vivo
[19] = target: T1, Phosphatidylinositol 4,5-bisphosphate 3-kinase catalytic subunit delta isoform; experiment: Inhibition of PI3Kdelta in human whole blood assessed as reduction in antihuman IgE antibody-stimulated CD63 expression preincubated for 30 mins followed by antihuman IgE antibody stimulation and measured after 20 mins by FACS analysis; format: tissue-based
[20] = target: T1, Phosphatidylinositol 4,5-bisphosphate 3-kinase catalytic subunit delta isoform; experiment: Inhibition of PI3Kdelta in human whole blood assessed as reduction in anti-CD79b antibody-induced CD69 expression preincubated for 60 mins followed by anti-CD79b antibody stimulation and measured after 3 hrs by FACS analysis; format: tissue-based
[21] = Protein binding in human plasma; format: ADME, cell-free; details: read-out: PPB (converted)

PI3-kinase p110-delta/p85-alpha, sequence (P27986 whole entry, one chain of several): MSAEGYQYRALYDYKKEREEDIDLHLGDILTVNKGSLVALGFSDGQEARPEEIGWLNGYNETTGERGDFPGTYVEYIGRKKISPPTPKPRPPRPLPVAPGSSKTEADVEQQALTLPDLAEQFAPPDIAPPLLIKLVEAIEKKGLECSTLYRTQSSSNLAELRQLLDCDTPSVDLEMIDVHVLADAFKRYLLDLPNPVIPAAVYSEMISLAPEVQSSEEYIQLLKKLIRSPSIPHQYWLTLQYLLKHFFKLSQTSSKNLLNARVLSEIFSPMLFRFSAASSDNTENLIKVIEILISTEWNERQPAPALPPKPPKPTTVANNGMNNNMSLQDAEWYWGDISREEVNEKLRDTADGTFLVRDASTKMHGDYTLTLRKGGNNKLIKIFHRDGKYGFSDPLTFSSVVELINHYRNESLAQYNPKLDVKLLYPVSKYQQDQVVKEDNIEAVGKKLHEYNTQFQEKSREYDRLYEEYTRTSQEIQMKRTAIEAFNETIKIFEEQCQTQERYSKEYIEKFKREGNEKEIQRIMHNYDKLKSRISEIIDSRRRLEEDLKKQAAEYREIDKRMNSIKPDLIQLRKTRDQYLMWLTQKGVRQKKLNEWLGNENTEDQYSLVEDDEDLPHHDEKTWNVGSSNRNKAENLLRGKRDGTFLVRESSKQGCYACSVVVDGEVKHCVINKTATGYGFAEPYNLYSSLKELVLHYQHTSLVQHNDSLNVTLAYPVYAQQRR
PI3-kinase p110-alpha/p85-alpha, sequence (P27986 whole entry): as the sequence (P27986 whole entry, one chain of several) above
PI3-kinase p110-alpha/p85-alpha, sequence (P42336 whole entry): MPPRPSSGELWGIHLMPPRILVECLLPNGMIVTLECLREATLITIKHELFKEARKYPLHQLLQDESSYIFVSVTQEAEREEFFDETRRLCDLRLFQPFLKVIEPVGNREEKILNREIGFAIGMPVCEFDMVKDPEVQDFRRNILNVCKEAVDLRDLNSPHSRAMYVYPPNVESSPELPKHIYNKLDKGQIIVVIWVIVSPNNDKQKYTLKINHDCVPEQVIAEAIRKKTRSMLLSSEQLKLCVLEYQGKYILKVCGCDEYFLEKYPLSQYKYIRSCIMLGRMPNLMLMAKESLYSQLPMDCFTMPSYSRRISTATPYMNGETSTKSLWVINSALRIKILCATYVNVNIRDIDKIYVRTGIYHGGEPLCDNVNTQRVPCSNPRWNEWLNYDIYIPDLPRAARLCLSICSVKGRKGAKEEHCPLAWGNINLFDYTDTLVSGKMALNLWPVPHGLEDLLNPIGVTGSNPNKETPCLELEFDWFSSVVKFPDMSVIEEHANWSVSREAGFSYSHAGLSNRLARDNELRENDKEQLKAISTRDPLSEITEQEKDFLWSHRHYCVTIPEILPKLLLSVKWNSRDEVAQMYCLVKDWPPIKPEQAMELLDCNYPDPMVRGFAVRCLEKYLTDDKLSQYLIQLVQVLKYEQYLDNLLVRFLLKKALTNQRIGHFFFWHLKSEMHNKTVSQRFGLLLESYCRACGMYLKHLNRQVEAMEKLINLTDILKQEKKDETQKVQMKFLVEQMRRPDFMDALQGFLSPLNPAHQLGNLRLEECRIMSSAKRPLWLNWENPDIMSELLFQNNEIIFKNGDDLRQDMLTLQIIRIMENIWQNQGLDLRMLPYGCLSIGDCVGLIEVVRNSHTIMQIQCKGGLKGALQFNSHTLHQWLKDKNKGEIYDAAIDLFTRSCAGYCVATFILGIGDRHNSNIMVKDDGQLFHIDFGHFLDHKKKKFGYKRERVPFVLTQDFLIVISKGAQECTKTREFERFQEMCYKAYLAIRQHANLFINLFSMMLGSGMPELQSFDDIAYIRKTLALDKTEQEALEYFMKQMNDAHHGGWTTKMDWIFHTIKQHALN
High affinity cGMP-specific 3',5'-cyclic phosphodiesterase 9A, sequence (O76083 whole entry): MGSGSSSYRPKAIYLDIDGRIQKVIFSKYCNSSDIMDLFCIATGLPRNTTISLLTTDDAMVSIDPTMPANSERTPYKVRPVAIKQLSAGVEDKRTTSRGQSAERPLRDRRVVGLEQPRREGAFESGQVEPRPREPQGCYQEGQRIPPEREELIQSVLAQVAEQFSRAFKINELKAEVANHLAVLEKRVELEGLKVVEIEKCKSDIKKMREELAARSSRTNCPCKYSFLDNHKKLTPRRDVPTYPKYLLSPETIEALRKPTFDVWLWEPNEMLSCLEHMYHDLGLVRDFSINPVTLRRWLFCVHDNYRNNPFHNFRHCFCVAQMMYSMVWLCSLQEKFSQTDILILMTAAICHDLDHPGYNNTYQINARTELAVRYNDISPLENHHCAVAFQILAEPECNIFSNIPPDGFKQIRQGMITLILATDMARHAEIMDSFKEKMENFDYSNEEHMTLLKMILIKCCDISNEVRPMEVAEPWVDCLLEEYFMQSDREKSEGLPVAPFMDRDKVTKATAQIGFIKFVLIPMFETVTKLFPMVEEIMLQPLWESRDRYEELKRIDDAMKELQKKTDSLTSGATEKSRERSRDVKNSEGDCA
Dual 3',5'-cyclic-AMP and -GMP phosphodiesterase 11A, sequence (Q9HCR9 whole entry): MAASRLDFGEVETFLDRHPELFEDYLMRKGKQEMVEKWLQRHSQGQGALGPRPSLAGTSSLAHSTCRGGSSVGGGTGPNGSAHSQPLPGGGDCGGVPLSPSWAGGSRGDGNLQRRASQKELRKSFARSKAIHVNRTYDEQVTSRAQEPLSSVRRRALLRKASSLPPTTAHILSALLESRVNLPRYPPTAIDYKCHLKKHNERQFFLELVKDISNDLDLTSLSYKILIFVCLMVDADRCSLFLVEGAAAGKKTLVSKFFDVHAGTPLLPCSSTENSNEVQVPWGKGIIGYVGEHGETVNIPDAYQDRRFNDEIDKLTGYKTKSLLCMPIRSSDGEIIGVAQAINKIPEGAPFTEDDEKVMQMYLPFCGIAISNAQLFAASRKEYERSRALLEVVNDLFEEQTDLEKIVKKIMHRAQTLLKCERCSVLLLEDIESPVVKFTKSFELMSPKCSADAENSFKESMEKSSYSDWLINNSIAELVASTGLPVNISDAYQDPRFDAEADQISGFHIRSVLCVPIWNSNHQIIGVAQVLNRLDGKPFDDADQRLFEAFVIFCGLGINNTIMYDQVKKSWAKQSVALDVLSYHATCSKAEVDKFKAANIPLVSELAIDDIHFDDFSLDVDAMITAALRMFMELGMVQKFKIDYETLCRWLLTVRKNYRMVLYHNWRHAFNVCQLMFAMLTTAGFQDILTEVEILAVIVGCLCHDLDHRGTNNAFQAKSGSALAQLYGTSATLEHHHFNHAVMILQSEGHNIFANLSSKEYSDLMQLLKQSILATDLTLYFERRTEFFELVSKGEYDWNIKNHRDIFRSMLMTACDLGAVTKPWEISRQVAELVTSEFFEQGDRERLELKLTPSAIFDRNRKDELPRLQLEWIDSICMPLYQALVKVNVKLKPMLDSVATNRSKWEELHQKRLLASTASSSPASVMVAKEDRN
cGMP-dependent 3',5'-cyclic phosphodiesterase, sequence (O00408 whole entry): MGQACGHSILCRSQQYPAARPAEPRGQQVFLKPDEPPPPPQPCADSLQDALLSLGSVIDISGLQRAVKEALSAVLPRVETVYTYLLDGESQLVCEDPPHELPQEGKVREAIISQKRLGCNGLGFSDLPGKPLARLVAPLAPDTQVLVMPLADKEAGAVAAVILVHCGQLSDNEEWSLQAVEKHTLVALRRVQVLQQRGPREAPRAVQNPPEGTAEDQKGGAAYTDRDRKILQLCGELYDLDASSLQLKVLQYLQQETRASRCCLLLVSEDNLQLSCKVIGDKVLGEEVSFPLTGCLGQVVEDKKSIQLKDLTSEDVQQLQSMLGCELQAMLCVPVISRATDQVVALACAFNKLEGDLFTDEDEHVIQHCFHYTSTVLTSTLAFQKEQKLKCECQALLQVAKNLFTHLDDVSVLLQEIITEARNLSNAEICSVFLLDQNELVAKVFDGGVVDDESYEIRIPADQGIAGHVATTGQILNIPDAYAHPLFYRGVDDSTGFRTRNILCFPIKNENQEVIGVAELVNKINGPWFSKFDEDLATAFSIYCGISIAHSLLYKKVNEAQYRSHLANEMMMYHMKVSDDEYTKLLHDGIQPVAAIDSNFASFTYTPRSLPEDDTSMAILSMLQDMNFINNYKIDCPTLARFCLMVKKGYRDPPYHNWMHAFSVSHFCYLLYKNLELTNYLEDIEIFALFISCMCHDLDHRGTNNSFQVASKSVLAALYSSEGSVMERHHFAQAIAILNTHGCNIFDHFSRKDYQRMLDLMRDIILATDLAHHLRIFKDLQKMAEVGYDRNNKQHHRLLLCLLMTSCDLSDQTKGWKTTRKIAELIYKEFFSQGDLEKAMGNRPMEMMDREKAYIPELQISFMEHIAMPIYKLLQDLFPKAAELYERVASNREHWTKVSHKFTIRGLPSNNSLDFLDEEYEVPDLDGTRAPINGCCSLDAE

With `CCC(=O)N1CC[C@@H](Nc2ncnc3c2nc(-c2cnn(CC)c2C)n3C)C1` the IC50 [1] was > 1000 nM, the IC50 [2] was 187 nM and the IC50 [3] was 540 nM. It also gave an IC50 [4] of 26 nM.
Compound `CC[C@H](Nc1ncnc2c1nc(-c1cnn(CC)c1C)n2C)C(=O)N1CCOCC1` has an IC50 [3] of 274 nM.
For `CCn1ncc(-c2nc3c(N[C@H]4CC[C@@H](C(=O)N5CCOCC5)C4)ncnc3n2C)c1C`, the IC50 [1] was 5520 nM, the IC50 [2] was 153 nM and the IC50 [3] was 90 nM. The IC50 [4] was 11 nM.
Compound `CCn1ncc(-c2nc3c(NC4CC(=O)N(CC(C)C)C4)ncnc3n2C)c1C` (stereo not given) has an IC50 [1] of 2250 nM, an IC50 [2] of 45 nM and an IC50 [3] of 121 nM. It also gave an IC50 [4] of 4.3 nM.
In the case of `CC[C@H](Nc1ncnc2c1nc(-c1cnn(CC)c1C)n2C)C(=O)N(C)C`, the IC50 [1] is reported as > 10000 nM, the IC50 [2] is reported as 1470 nM and the IC50 [3] is reported as 1070 nM. The IC50 [4] was 34 nM.
`CCC(=O)N1CCC[C@H](Nc2ncnc3c2nc(-c2cnn(CC)c2C)n3C)C1` showed an IC50 [1] of 3910 nM, an IC50 [2] of 309 nM and an IC50 [3] of 338 nM.
For `CCn1ncc(-c2nc3c(N[C@H]4CCN(C(=O)C5CCOCC5)C4)ncnc3n2C)c1C`, the logD [5] was 0.8, the IC50 [6] was > 20000 nM and the IC50 [7] was > 20000 nM. For the same compound, the IC50 [1] was 9190 nM, the IC50 (Phosphodiesterase 1) was > 20000 nM and the half-life [8] was 12 min. For the same compound, the clearance [9] was 95 mL/min/kg, the clearance [10] was 95 mL/min/kg and the IC50 [11] was > 20000 nM. The IC50 [12] was > 20000 nM, the IC50 [2] was 16 nM and the Vd [13] was 1.7 L/kg. The IC50 [14] was > 20000 nM, the fraction unbound [15] was 0.52 and the IC50 (Phosphodiesterase 7) was > 20000 nM. For the same compound, the IC50 (Phosphodiesterase 3) was > 20000 nM, the IC50 (Phosphodiesterase 4) was > 20000 nM and the IC50 [3] was 35 nM. The IC50 (Phosphodiesterase 6) was > 20000 nM, the Vdu [16] was 3 L/kg and the IC50 [4] was 0.5 nM. For the same compound, the IC50 [17] was > 20000 nM.
With `CCn1ncc(-c2nc3c(N[C@H](C)C(=O)N4CCOCC4)ncnc3n2C)c1C` the IC50 [1] was > 10000 nM, the IC50 [3] was > 10000 nM and the IC50 [4] was 1080 nM.
In the case of `CCC(=O)N1CC(Nc2ncnc3c2nc(-c2cnn(CC)c2C)n3C)C1`, the Ratio IC50 (Homo sapiens) is reported as 16, the IC50 [1] is reported as > 10000 nM and the IC50 [2] is reported as 2210 nM. It also gave an IC50 [3] of 904 nM.
With `CCC(=O)N1CC[C@H](Nc2ncnc3c2nc(-c2cnn(CC)c2C)n3C)C1` the logD [5] was 0.8, the IC50 [6] was > 20000 nM and the IC50 [7] was > 20000 nM. The IC50 [1] was 7250 nM, the IC50 (Phosphodiesterase 1) was > 20000 nM and the CL [18] was 370 mL/min/kg. For the same compound, the half-life [8] was 24 min, the clearance [9] was 58 mL/min/kg and the IC50 [11] was > 20000 nM. The IC50 [12] was > 20000 nM, the IC50 [2] was 24 nM and the Vd [13] was 1.8 L/kg. The IC50 [14] was > 20000 nM, the fraction unbound [15] was 0.49 and the IC50 (Phosphodiesterase 7) was > 20000 nM. For the same compound, the IC50 (Phosphodiesterase 3) was > 20000 nM, the IC50 (Phosphodiesterase 4) was 8400 nM and the IC50 [3] was 94 nM. The IC50 (Phosphodiesterase 6) was > 20000 nM, the Vdu [16] was 4 L/kg and the IC50 [4] was 1.6 nM. For the same compound, the IC50 [17] was > 20000 nM.
Work on `CCn1ncc(-c2nc3c(N[C@H]4CCN(C(=O)C5CC5)C4)ncnc3n2C)c1C` yielded a logD [5] of 1, an IC50 [19] of 330 nM and an IC50 [1] of 1590 nM. The IC50 [20] was 35 nM, the CL [18] was 410 mL/min/kg and the half-life [8] was 18 min. For the same compound, the clearance [9] was 49 mL/min/kg, the IC50 [2] was 13 nM and the Vd [13] was 1.1 L/kg. For the same compound, the fraction unbound [21] was 0.45, the fraction unbound [15] was 0.28 and the IC50 [3] was 35 nM. The Vdu [16] was 4 L/kg and the IC50 [4] was 0.9 nM.
